One block for each molecule: values may come before it. Activity calls are given as the source filed them. No cut-off for these calls is given here.
Experiments:
MCF7 = experiment: Antiproliferative activity against human MCF7 cells assessed as inhibition of cell proliferation incubated for 48 hrs by MTT assay; type: functional, cell-based; details: MCF7, 48 h
BGC-823 [1] = experiment: Antiproliferative activity against human BGC-823 cells assessed as inhibition of cell proliferation incubated for 48 hrs by MTT assay; type: functional, cell-based; details: BGC-823, 48 h
HepG2 = experiment: Antiproliferative activity against human HepG2 cells assessed as inhibition of cell proliferation incubated for 48 hrs by MTT assay; type: functional, cell-based; details: HepG2, 48 h
[2] = Cytotoxicity against human MCF-10A cells assessed as inhibition of cell proliferation incubated for 48 hrs by MTT assay; type: toxicity, cell-based
[3] = Cytotoxicity against human GES1 cells assessed as inhibition of cell proliferation incubated for 48 hrs by MTT assay; type: toxicity, cell-based
[4] = Cytotoxicity against human L02 cells assessed as inhibition of cell proliferation incubated for 48 hrs by MTT assay; type: toxicity, cell-based
MGC-803 = experiment: Antiproliferative activity against human MGC-803 cells assessed as inhibition of cell proliferation incubated for 48 hrs by MTT assay; type: functional, cell-based; details: MGC-803, 48 h
SGC-7901 = experiment: Antiproliferative activity against human SGC-7901 cells assessed as inhibition of cell proliferation incubated for 48 hrs by MTT assay; type: functional, cell-based; details: SGC-7901, 48 h
NCI-N87 = experiment: Antiproliferative activity against human NCI-N87 cells assessed as inhibition of cell proliferation incubated for 48 hrs by MTT assay; type: functional, cell-based; details: NCI-N87, 48 h
BGC-823 [5] = experiment: Antiproliferative activity against human BGC-823 cells assessed as inhibition of cell proliferation preincubated with H2O2 for 2 hrs followed by compound addition and measured after 48 hrs by MTT assay; type: functional, cell-based
[6] = Selectivity index, ratio of IC50 for cytotoxicity against human GES1 cells to IC50 for antiproliferative activity against human BGC-823 cells in presence of H2O2; type: toxicity, cell-based; details: GES1 cells and BGC-823 cells, read-out: Ratio IC50
BGC-823 [7] = experiment: Induction of ROS generation in human BGC-823 cells assessed as cells with green fluorescence at 1 uM incubated for 24 hrs by DCFH-DA staining based analysis relative to control; type: functional
BGC-823 [8] = experiment: Induction of apoptosis in human BGC-823 cells assessed as viable cells at 1 uM incubated for 48 hrs by Annexin V-FITC/PI staining based flow cytometric analysis ( Rvb = 90.09 %); type: functional; details: read-out: Activity
BGC-823 [9] = experiment: Induction of apoptosis in human BGC-823 cells assessed as early apoptotic cells at 1 uM incubated for 48 hrs by Annexin V-FITC/PI staining based flow cytometric analysis ( Rvb = 1.68 %); type: functional
BGC-823 [10] = experiment: Induction of apoptosis in human BGC-823 cells assessed as late apoptotic cells at 1 uM incubated for 48 hrs by Annexin V-FITC/PI staining based flow cytometric analysis ( Rvb = 5.61 %); type: functional
BGC-823 [11] = experiment: Induction of apoptosis in human BGC-823 cells assessed as necrotic cells at 1 uM incubated for 48 hrs by Annexin V-FITC/PI staining based flow cytometric analysis ( Rvb = 1.79 %); type: functional
BGC-823 [12] = experiment: Antitumor activity against human BGC-823 cells xenografted in BALB/c nude mouse assessed as tumor growth inhibition at 5 mg/kg, ip administered for 21 days relative to control; type: functional; details: BGC-823, 504 h, time 21 day, read-out: TGI
[13] = Acute toxicity in ip dosed ICR mouse assessed as mortality rate by measuring ratio at 1.91 logarithm of dose relative to total number of mouse; type: organism-based; details: in vivo
[14] = Acute toxicity in ip dosed ICR mouse assessed as mortality rate by measuring ratio at 1.80 logarithm of dose relative to total number of mouse; type: organism-based; details: in vivo
[15] = Acute toxicity in ip dosed ICR mouse assessed as mortality rate by measuring ratio at 1.68 logarithm of dose relative to total number of mouse; type: organism-based; details: in vivo
[16] = Acute toxicity in ip dosed ICR mouse assessed as mortality rate by measuring ratio at 1.57 logarithm of dose relative to total number of mouse; type: organism-based; details: in vivo
[17] = Acute toxicity in ip dosed ICR mouse assessed as mortality rate by measuring ratio at 2.16 logarithm of dose relative to total number of mouse; type: organism-based; details: in vivo
[18] = Acute toxicity in ip dosed ICR mouse assessed as mortality rate by measuring ratio at 2.04 logarithm of dose relative to total number of mouse; type: organism-based; details: in vivo
[19] = Acute toxicity in ip dosed ICR mouse assessed as animal death at 2.03 logarithm of dose; type: organism-based; details: in vivo
[20] = Acute toxicity in ip dosed ICR mouse assessed as animal death at 1.57 logarithm of dose; type: organism-based; details: in vivo
[21] = Acute toxicity in ip dosed ICR mouse assessed as animal death at 2.16 logarithm of dose; type: organism-based; details: in vivo
[22] = Acute toxicity in ip dosed ICR mouse assessed as lethal dose; type: organism-based; details: in vivo
[23] = Binding affinity to DTT in PBS assessed as UV peak appearance at 288 nm at 360 uM by UV-Vis spectra analysis

IC50 (MCF7): 1.5 µM
IC50 (BGC-823 [1]): 2 µM
IC50 (HepG2): 3 µM
Compound: CC1(C)CC[C@]2(C(=O)OCCCOC(=O)c3ccc(OCc4ccc(B5OC(C)(C)C(C)(C)O5)cc4)cc3)CC[C@]3(C)[C@H](C(=O)C=C4[C@@]5(C)C=C(C#N)C(=O)C(C)(C)[C@@H]5CC[C@]43C)[C@@H]2C1
IC50 at 48 h [2]: 3.1 µM
IC50 at 48 h [3]: 2.7 µM
IC50 at 48 h [4]: 3.6 µM

IC50 (MCF7): 3.5 µM
IC50 (BGC-823 [1]): 5.5 µM
IC50 (HepG2): 3.6 µM
Compound: COc1ccc(/C=C/CC(=O)OCCCOC(=O)[C@]23CCC(C)(C)C[C@H]2[C@H]2C(=O)C=C4[C@@]5(C)C=C(C#N)C(=O)C(C)(C)[C@@H]5CC[C@@]4(C)[C@]2(C)CC3)cc1OCc1ccc(B2OC(C)(C)C(C)(C)O2)cc1
IC50 at 48 h [2]: 4 µM
IC50 at 48 h [3]: 6.6 µM
IC50 at 48 h [4]: 5 µM

IC50 (MCF7): 9.9 µM
IC50 (BGC-823 [1]): 8.7 µM
IC50 (HepG2): 6.5 µM
Compound: CC1(C)CC[C@]2(C(=O)OCCCOC(=O)C/C=C/c3ccc(OCc4ccc(B5OC(C)(C)C(C)(C)O5)cc4)cc3)CC[C@]3(C)[C@H](C(=O)C=C4[C@@]5(C)C=C(C#N)C(=O)C(C)(C)[C@@H]5CC[C@]43C)[C@@H]2C1
IC50 at 48 h [2]: 18.3 µM
IC50 at 48 h [3]: 6.9 µM
IC50 at 48 h [4]: 3.3 µM

IC50 (MCF7): 2.7 µM
IC50 (BGC-823 [1]): 1.4 µM
IC50 (HepG2): 3.9 µM
IC50 (MGC-803): 2.7 µM
IC50 (SGC-7901): 3.1 µM
IC50 (BGC-823 [5]): 0.8 µM
Compound: CC1(C)CC[C@]2(C(=O)OCCCCCOc3ccc(NC(=O)OCc4ccc(B5OC(C)(C)C(C)(C)O5)cc4)cc3)CC[C@]3(C)[C@H](C(=O)C=C4[C@@]5(C)C=C(C#N)C(=O)C(C)(C)[C@@H]5CC[C@]43C)[C@@H]2C1
IC50 at 48 h [2]: 5.9 µM
IC50 at 48 h [3]: 3 µM
IC50 at 48 h [4]: 4.9 µM
IC50 (NCI-N87): 1.6 µM
selectivity ratio [6]: 3.75

Compound: COC(=O)[C@]12CCC(C)(C)C[C@H]1[C@H]1C(=O)C=C3[C@@]4(C)C=C(C#N)C(=O)C(C)(C)[C@@H]4CC[C@@]3(C)[C@]1(C)CC2 [BARDOXOLONE METHYL]
IC50 (MCF7): 1.2 µM
IC50 (BGC-823 [1]): 0.5 µM
IC50 (HepG2): 0.5 µM
IC50 at 48 h [2]: 0.8 µM
IC50 at 48 h [3]: 0.4 µM
IC50 at 48 h [4]: 0.4 µM
IC50 (MGC-803): 0.9 µM
IC50 (SGC-7901): 0.6 µM
IC50 (NCI-N87): 0.8 µM
IC50 (BGC-823 [5]): 0.5 µM
selectivity ratio [6]: 1
Activity (BGC-823 [7]): 97.6%
viability at 1 µM (BGC-823 [8]): 61.3%
Activity (BGC-823 [9]): 6.59%
Activity (BGC-823 [10]): 24.5%
Activity (BGC-823 [11]): 7.6%
inhibition in vivo at 5 mg/kg (BGC-823 [12]): 51.7%
Ratio [13]: 0.67
Ratio [14]: 0.6
Ratio [15]: 0.25
Ratio [16]: 0
Ratio [17]: 1
Ratio [18]: 0.83
Activity [19]: Toxic
Activity [20]: Non-Toxic
Activity [21]: Toxic
LD50 [22]: 61.7 mg/kg
Activity [23]: Active

IC50 (MCF7): 2.9 µM
IC50 (BGC-823 [1]): 3.8 µM
IC50 (HepG2): 3.6 µM
Compound: CC1(C)CC[C@]2(C(=O)OCCOC(=O)c3ccc(OCc4ccc(B5OC(C)(C)C(C)(C)O5)cc4)cc3)CC[C@]3(C)[C@H](C(=O)C=C4[C@@]5(C)C=C(C#N)C(=O)C(C)(C)[C@@H]5CC[C@]43C)[C@@H]2C1
IC50 at 48 h [2]: 4 µM
IC50 at 48 h [3]: 4.7 µM
IC50 at 48 h [4]: 5 µM

IC50 (MCF7): 1.6 µM
IC50 (BGC-823 [1]): 2.1 µM
IC50 (HepG2): 2.8 µM
Compound: CC1(C)CC[C@]2(C(=O)OCCCCCOC(=O)c3ccc(OCc4ccc(B5OC(C)(C)C(C)(C)O5)cc4)cc3)CC[C@]3(C)[C@H](C(=O)C=C4[C@@]5(C)C=C(C#N)C(=O)C(C)(C)[C@@H]5CC[C@]43C)[C@@H]2C1
IC50 at 48 h [2]: 3.1 µM
IC50 at 48 h [3]: 2.8 µM
IC50 at 48 h [4]: 3.5 µM

Source: ChEMBL document CHEMBL5576127, “New CDDO Arylboronate Ester Derivatives with High Selectivity and Low Toxicity” (J Med Chem, 2024)
